In brackets after ≈: the same amount, converted by molar mass. Read-outs that look alike come from different tables or passages of the source.
Assays:
[1] = target: T1, full-length beta-Catenin (Uniprot ID P35222) (Homo sapiens, UniProt P35222); assay: Fluorescence polarization IC50 (beta-catenin / 5FAM-TCF4 10-53 competition); format: binding
T1 construct: 10 nM full-length beta-Catenin (Uniprot ID P35222)
T1 sequence (P35222 1-781): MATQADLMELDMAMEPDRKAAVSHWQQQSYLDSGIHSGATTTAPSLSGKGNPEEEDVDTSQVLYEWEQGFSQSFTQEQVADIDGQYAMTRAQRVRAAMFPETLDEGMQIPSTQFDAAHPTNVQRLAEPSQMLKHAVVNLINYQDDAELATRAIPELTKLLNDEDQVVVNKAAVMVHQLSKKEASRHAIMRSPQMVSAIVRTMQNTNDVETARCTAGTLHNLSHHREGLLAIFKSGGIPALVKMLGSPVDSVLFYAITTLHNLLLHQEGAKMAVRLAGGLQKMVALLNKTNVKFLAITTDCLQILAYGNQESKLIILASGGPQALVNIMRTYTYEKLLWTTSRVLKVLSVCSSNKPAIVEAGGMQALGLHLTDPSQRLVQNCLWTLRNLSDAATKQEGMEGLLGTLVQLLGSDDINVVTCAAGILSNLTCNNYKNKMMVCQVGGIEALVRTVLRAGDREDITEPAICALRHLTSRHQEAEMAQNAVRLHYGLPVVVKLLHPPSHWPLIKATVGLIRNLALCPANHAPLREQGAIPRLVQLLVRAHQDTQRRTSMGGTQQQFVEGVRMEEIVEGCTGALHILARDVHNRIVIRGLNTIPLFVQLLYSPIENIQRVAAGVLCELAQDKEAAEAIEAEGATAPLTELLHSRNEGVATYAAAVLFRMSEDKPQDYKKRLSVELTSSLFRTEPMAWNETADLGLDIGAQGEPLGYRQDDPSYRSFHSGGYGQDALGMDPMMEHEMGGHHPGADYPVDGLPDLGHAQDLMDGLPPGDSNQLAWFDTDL

[2] = CHI Log D procedure; format: physicochemical; details: for CHI Log D: pH 7.4
[3] = Solubility in PBS; format: physicochemical
How it was run: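 Solubility is derived from HPLC peak areas: the ratio of the PBS supernatant peak to a 50 μM DMSO peptide peak, times 50 uM.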

[4] = target: T2, full-length B-Catenin (Uniprot ID P35222) (Homo sapiens, UniProt P35222); assay: Alphascreen binding assay (beta-catenin / biotin-TCF4 10-53)
T2 construct: 65 nM full-length B-Catenin (Uniprot ID P35222)
T2 sequence (P35222 1-781): T1 sequence (P35222 1-781)
How it was run: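 Final concentrations: 65 nM full-length human β-catenin plus 10 nM biotin-TCF4(10-53) peptide, test peptide 3-fold from 10 uM to 5 nM, preincubated 15 min at 20 °C in Tris pH 8.0/250 mM NaCl buffer. Nickel-chelate AlphaScreen donor/acceptor beads then added for 60 min in the dark; duplicate reads fitted to 1:1 binding model with Hill slope.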

[5] = test system: COLO320DM cells; format: cell-based; details: COLO320DM cells; read-out: COLO320DM Proliferation Abs IC50
Method: COLO320DM proliferation assay IC50: In some embodiments, inhibition of cell proliferation by provided technologies were assessed using cell lines related to or from certain conditions, disorders or diseases. In some embodiments, cell proliferation was assessed in COLO320DM cells. In some embodiments, assessment was performed using the following procedure: On Day 1, cultured COLO320DM cells in a T75 flask were trypsinized in 3 mL of 0.25% trypsin/EDTA for 5 min and quenched with 10 mL RPMI-1640+4% HI FBS assay media. The cells were spun down at 1200 rpm for 5 min, the cell pellet collected and re-suspended at 5000 cells/mL in assay media. Using a Combi liquid handler, cells were dispensed (50 uL, 250 cells/well) into three 384 well plates. Plates were incubated at 37° C., […]. On day 2, compounds were added. A liquid handling system was used to prepare the compound dilution and dispense compound into assay plates. The compounds were serially diluted 1/2 in 90% DMSO to create a 7 point dose curve. From compound plate, 100 nL of compound were dispensed directly into wells of the assay plates to create a dose curve starting at 20 uM and ending at 313 nM. Assay plates were incubated at 37° C., […]. On day 6, assay plates were removed from the incubator and allowed to sit at room temperature for 30 min. Using a liquid handler, 20 uL of CellTiter Glo reagent was added to each well. The assay plates were shaken for 2 min and allowed to sit on the bench for 10-15 minutes. The assay plates were read using the CellTiter Glo protocol on a GloMax microplate reader, and the data analyzed using GraphPad Prism.

[6] = target: T3, beta-catenin/TCF4 engagement (Homo sapiens, UniProt P35222); assay: Nano-BRET target engagement assay (B-cat-Halo & TCF4-Luc in HEK293 cells); format: cell-based; details: read-out: NanoBRET Abs IC50
T3 construct: expressed in transfected cells; host or cells: HEK293
T3 sequence (P35222 1-781): T1 sequence (P35222 1-781)

[7] = Table E2-1, read-out: beta-Catenin FP IC50
[8] = fluorescence polarization, beta-catenin, read-out: FP EC50
[9] = fluorescence polarization, read-out: beta-Catenin FP IC50

SMILES	IC50 [1, 7] [nM]	chromatographic logD ([2]; pH 7.4, CHI Log D)	Solubility [3] [µM]	EC50 [4] [nM]	IC50 [1, 8] [nM]	CHI Log D [2]	IC50 [1, 9] [nM]	IC50 [5] [nM]	IC50 [6] [nM]
CC[C@H](C)[C@H](NC(=O)[C@H](CC(=O)O)NC(=O)[C@H](C)NC(C)=O)C(=O)N[C@]1(C)CCN(C)C(=O)OCC=CCCCCC[C@@](C)(C(=O)N[C@@H](Cc2ccccc2)C(=O)N[C@@H](Cc2c[nH]c3ccccc23)C(=O)N[C@@H](Cc2c[nH]cn2)C(N)=O)NC(=O)[C@H](CCC(N)=O)NC(=O)[C@H](Cc2ccccc2)NC(=O)[C@H](C)NC(=O)[C@H](C)NC(=O)[C@H](CCC(=O)O)NC(=O)[C@H](CC(=O)O)NC1=O [I-67, Ac-Ala-Asp-Ile-RdN-Asp-Glu-Ala-Ala-Phe-Gln-S7-Phe-Trp-His-NH2]	1230		50 (≈ 92.1 µg/mL)	154	1230	1.24			
CC(=O)N1CCC[C@]12CC=CCCCC1(CCCC=CCCCCCC[C@@](C)(C(=O)N[C@@H](Cc3ccccc3)C(=O)N[C@@H](Cc3c[nH]c4ccccc34)C(=O)N[C@@H](CCC(N)=O)C(N)=O)NC(=O)[C@H](C(C)C)NC(=O)[C@H](C)NC(=O)[C@H](C)NC(=O)[C@H](C)NC(=O)[C@H](CC(=O)O)NC(=O)[C@H](CC(=O)O)NC1=O)NC(=O)[C@H](C)NC(=O)[C@H](CC(=O)O)NC2=O (stereo partly drawn) [I-353, Ac-PL3-Asp-Ala-B5-Asp-Asp-Ala-Ala-Ala-Val-S8-Phe-Trp-Gln-NH2]			45 (≈ 76.7 µg/mL)	9290		1.916			
CC(=O)N1CCC[C@]12CC=CCCCC1(CCCC=CCCCOC(=O)N3CC[C@@](C(=O)N[C@@H](Cc4ccccc4Cl)C(=O)N[C@@H](Cc4csc5ccccc45)C(=O)N[C@@H](CC(N)=O)C(N)=O)(C3)NC(=O)[C@H](CC(C)C)NC(=O)[C@H](Cc3ccccc3)NC(=O)[C@H](C)NC(=O)[C@H](C)NC(=O)[C@H](Cc3cccc(C(=O)O)c3)NC(=O)[C@H](CC(=O)O)NC1=O)NC(=O)[C@H](CC(C)(C)C)NC(=O)[C@H](CC(=O)O)NC2=O (stereo partly drawn) [I-1904, Ac-PL3-Asp-Npg-B5-Asp-3COOHF-Ala-Ala-Phe-Leu-PyrS2-2C1F-BztA-Asn-NH2]							15	> 20000	4200
CC(=O)N1CCC[C@]12CC=CCCCC1(CCCC=CCCCOC(=O)N3CC[C@@](C(=O)N[C@@H](Cc4ccccc4Cl)C(=O)N[C@@H](Cc4csc5ccccc45)C(=O)N[C@@H](CC(N)=O)C(=O)N[C@@H](C)C(=O)N[C@@H](C)C(=O)N[C@@H](C)C(N)=O)(C3)NC(=O)[C@H](CC(C)C)NC(=O)[C@H](Cc3ccccc3)NC(=O)[C@H](C)NC(=O)[C@H](C)NC(=O)[C@H](Cc3cccc(C(=O)O)c3)NC(=O)[C@H](CC(=O)O)NC1=O)NC(=O)[C@H](CC(C)(C)C)NC(=O)[C@H](CC(=O)O)NC2=O (stereo partly drawn) [I-2040, Ac-PL3-Asp-Npg-B5-Asp-3COOHF-Ala-Ala-Phe-Leu-PyrS2-2C1F-BztA-Asn-Ala-Ala-Ala-NH2]							24	> 20000	2800
CC(=O)N1CCC[C@]12CC=CCCCC1(CCCC=CCCCOC(=O)N3CC[C@@](C(=O)N[C@@H](Cc4ccsc4)C(=O)N[C@@H](Cc4csc5ccccc45)C(=O)N[C@@H](CC(N)=O)C(N)=O)(C3)NC(=O)[C@H](Cc3ccccc3)NC(=O)[C@H](Cc3ccccc3)NC(=O)[C@H](C)NC(=O)[C@H](C)NC(=O)[C@H](Cc3cccc(C(=O)O)c3)NC(=O)[C@H](CC(=O)O)NC1=O)NC(=O)[C@H](CC(C)(C)C)NC(=O)[C@H](CC(=O)O)NC2=O (stereo partly drawn) [I-2044, Ac-PL3-Asp-Npg-B5-Asp-3COOHF-Ala-Ala-Phe-Phe-PyrS2-3Thi-BztA-Asn-NH2]							9	> 20000	2600

Further compounds by falling EC50 [4], results first:

IC50 [1, 7] [nM]	chromatographic logD ([2]; pH 7.4, CHI Log D)	Solubility [3] [µM]	EC50 [4] [nM]	IC50 [1, 8] [nM]	CHI Log D [2]	SMILES	IC50 [1, 9] [nM]	IC50 [5] [nM]	IC50 [6] [nM]
		50 (≈ 85.2 µg/mL)	8200		1.619	CC(=O)N1CCC[C@]12CC=CCCCC1(CCCC=CCCCCCC[C@@](C)(C(=O)N[C@@H](C)C(=O)N[C@@H](Cc3c[nH]c4ccccc34)C(=O)N[C@@H](CCC(N)=O)C(N)=O)NC(=O)[C@H](C(C)C)NC(=O)[C@H](Cc3ccccc3)NC(=O)[C@H](C)NC(=O)[C@H](C)NC(=O)[C@H](CC(=O)O)NC(=O)[C@H](CC(=O)O)NC1=O)NC(=O)[C@H](C)NC(=O)[C@H](CC(=O)O)NC2=O (stereo partly drawn) [I-356, Ac-PL3-Asp-Ala-B5-Asp-Asp-Ala-Ala-Phe-Val-S8-Ala-Trp-Gln-NH2]			
		50 (≈ 85.2 µg/mL)	2130		1.947	CC(=O)N1CCC[C@]12CC=CCCCC1(CCCC=CCCCCCC[C@@](C)(C(=O)N[C@@H](Cc3ccccc3)C(=O)N[C@@H](Cc3c[nH]c4ccccc34)C(=O)N[C@@H](CCC(N)=O)C(N)=O)NC(=O)[C@H](C(C)C)NC(=O)[C@H](C)NC(=O)[C@H](C)NC(=O)[C@H](C)NC(=O)[C@H](CC(=O)O)NC(=O)[C@H](CC(=O)O)NC1=O)NC(=O)[C@H](C)NC(=O)[C@H](CC(=O)O)NC2=O (stereo partly drawn) [I-354, Ac-PL3-Asp-Ala-B5-Asp-Asp-Ala-Ala-Ala-Val-S8-Phe-Trp-Gln-NH2]			
3200	1.93	50 (≈ 89.1 µg/mL)	158			CC(=O)N1CCC[C@]12CC=CCCCC1(CCCC=CCCCCCC[C@@](C)(C(=O)N[C@@H](Cc3ccccc3)C(=O)N[C@@H](Cc3c[nH]c4ccccc34)C(=O)N[C@@H](CCC(N)=O)C(N)=O)NC(=O)[C@H](C(C)C)NC(=O)[C@H](Cc3ccccc3)NC(=O)[C@H](C)NC(=O)[C@H](C)NC(=O)[C@H](CC(=O)O)NC(=O)[C@H](CC(=O)O)NC1=O)NC(=O)[C@H](C)NC(=O)[C@H](CC(=O)O)NC2=O (stereo partly drawn) [I-52, Ac-PL3-Asp-Ala-B5-Asp-Asp-Ala-Ala-Phe-Val-S8-Phe-Trp-Gln-NH2]			
3120		26 (≈ 47.8 µg/mL)	105	3120	3.076	CCN(CC(=O)O)C[C@@H]1NC(=O)[C@H](CC(=O)O)NC(=O)C2(CCCC=CCCCCCC[C@@](C)(C(=O)N[C@@H](Cc3ccccc3)C(=O)N[C@@H](Cc3c[nH]c4ccccc34)C(=O)N[C@@H](CCC(N)=O)C(N)=O)NC(=O)[C@H](C(C)C)NC(=O)[C@H](Cc3ccccc3)NC(=O)[C@H](C)NC(=O)[C@H](C)NC1=O)CCCC=CC[C@]1(CCCN1C(C)=O)C(=O)N[C@@H](CC(=O)O)C(=O)N[C@@H](C)C(=O)N2 (stereo partly drawn) [I-173, Ac-PL3-Asp-Ala-B5-Asp-EtGA-Ala-Ala-Phe-Val-S8-Phe-Trp-Gln-NH2]			
1310		32 (≈ 56.1 µg/mL)	74	1310	1.926	CC(=O)N1CCC[C@]12CC=CCCCC1(CCCC=CCCCCCC[C@@](C)(C(=O)N[C@@H](Cc3ccccc3)C(=O)N[C@@H](Cc3c[nH]c4ccccc34)C(=O)N[C@@H](CCC(N)=O)C(N)=O)NC(=O)[C@H](C)NC(=O)[C@H](Cc3ccccc3)NC(=O)[C@H](C)NC(=O)[C@H](C)NC(=O)[C@H](CC(=O)O)NC(=O)[C@H](CC(=O)O)NC1=O)NC(=O)[C@H](C)NC(=O)[C@H](CC(=O)O)NC2=O (stereo partly drawn) [I-288, Ac-PL3-Asp-Ala-B5-Asp-Asp-Ala-Ala-Phe-Ala-S8-Phe-Trp-Gln-NH2]			
